Laboratory results from PMC8697972, “New Auranofin Analogs with Antibacterial Properties against Burkholderia Clinical Isolates” (Antibiotics, 2021).
Like-named read-outs stand apart in the source and are kept apart here. Marks after values point to notes of the source that are not given here.

Assays:
B. pseudomallei = format: cell-based, Burkholderia pseudomallei
B. dolosa CEP021 = format: cell-based, Burkholderia dolosa; conditions: B. dolosa CEP021
B. ubonensis LMG 20358 = format: cell-based, Burkholderia ubonensis; conditions: B. ubonensis LMG 20358
members of the Bcc = experiment: MIC, summary over Bcc panel; format: cell-based, Burkholderia cepacia complex; conditions: text summary over Bcc panel (most of the MICs)
Gram-negative bacteria = test system: Gram-negative bacteria; design: method as in PMID 25831516; conditions: cited from earlier work
B. mallei = format: cell-based, Burkholderia mallei; conditions: range over B. mallei strains
B. cenocepacia K56-2 [1] = format: cell-based, Burkholderia cenocepacia; conditions: B. cenocepacia K56-2; CAMHB, 18 h, 37 °C
B. contaminans FFH-4004 = format: cell-based, Burkholderia contaminans; conditions: B. contaminans FFH-4004
B. pseudomallei MSHR465a = format: cell-based, Burkholderia pseudomallei
[2] = test system: B. pseudomallei HBPUB10134a; format: cell-based, Burkholderia pseudomallei
B. pseudomallei 1710b = format: cell-based, Burkholderia pseudomallei
B. lata BCC6 = format: cell-based, Burkholderia lata; conditions: B. lata BCC6
[3] = test system: B. mallei Ivan (NCTC 10230); format: cell-based, Burkholderia mallei
B. cenocepacia 140485 = format: cell-based, Burkholderia cenocepacia; conditions: B. cenocepacia 140485
[4] = test system: B. mallei China 7 (NBL 7); format: cell-based, Burkholderia mallei
B. multivorans ATCC17616 = format: cell-based, Burkholderia multivorans; conditions: B. multivorans ATCC17616
[5] = test system: B. contaminans FFH-2050MA; format: cell-based, Burkholderia contaminans; conditions: B. contaminans FFH-2050MA
B. contaminans MF16 = format: cell-based, Burkholderia contaminans; conditions: B. contaminans MF16
[6] = test system: B. mallei China 5 (NBL 4); format: cell-based, Burkholderia mallei
[7] = test system: Staphylococcus aureus 107094; format: cell-based
B. pseudomallei MSHR305 = format: cell-based, Burkholderia pseudomallei
B. cenocepacia K56-2 [8] = experiment: In vivo antibiotic activity in infected G. mellonella; conditions: G. mellonella infected with B. cenocepacia K56-2, data not shown
[9] = test system: Escherichia vulneris CEP511; format: cell-based
[10] = test system: Escherichia vulneris CEP511; experiment: MBC (minimum bactericidal concentration)
[11] = test system: Acinetobacter baumannii ATCC 17978; format: cell-based
[12] = test system: Staphylococcus aureus 107094; experiment: MBC (minimum bactericidal concentration)
[13] = test system: Stenotrophomonas maltophilia DH57; experiment: MBC (minimum bactericidal concentration)
[14] = test system: Stenotrophomonas maltophilia K279a; experiment: MBC (minimum bactericidal concentration); format: cell-based
human A549 cells = conditions: cited from earlier work
[15] = test system: Acinetobacter baumannii ATCC 17978; experiment: MBC (minimum bactericidal concentration)
Escherichia coli 120955 [16] = format: cell-based
[17] = test system: Stenotrophomonas maltophilia K279a; format: cell-based
[18] = test system: Staphylococcus aureus ATCC 27700; experiment: MBC (minimum bactericidal concentration)
Escherichia coli 120955 [19] = experiment: MBC (minimum bactericidal concentration)
[20] = test system: Achromobacter xylosoxidans ACH03; format: cell-based
[21] = test system: Stenotrophomonas maltophilia DH57; format: cell-based
[22] = test system: Klebsiella pneumoniae 120310; format: cell-based
[23] = test system: B. cenocepacia K56-2 persister cells; experiment: Time kill of persister cells generated with ciprofloxacin; format: cell-based, Burkholderia cenocepacia; conditions: for further reduction of ciprofloxacin-generated persister population: enriched persister population; for killing of ciprofloxacin-generated persister cells: in PBS, 3 h, MS-40S/MS-40 2× and 4× MIC, ciprofloxacin 5× MIC
[24] = test system: Klebsiella pneumoniae 120310; experiment: MBC (minimum bactericidal concentration)
[25] = test system: Burkholderia cenocepacia K56-2; experiment: MBC (minimum bactericidal concentration); format: cell-based; conditions: MBC determined from exponential time kill curve
[26] = test system: Staphylococcus aureus ATCC 27700; format: cell-based
[27] = test system: Burkholderia cenocepacia K56-2; experiment: Time kill assays (exponential and stationary phase); conditions: for killing of stationary (non-replicating) phase cells / killing of exponential (replicating) phase cells: time kill, 1×, 2×, 6 h; for killing of stationary (non-replicating) phase cells: 4× MIC (DOX 4× MIC)
[28] = test system: Achromobacter xylosoxidans ACH03; experiment: MBC (minimum bactericidal concentration)
B. cenocepacia K56-2 [29] = experiment: Persister frequency assay; conditions: 24 h
B. cenocepacia K56-2 [30] = experiment: MIC in 50% human serum; format: cell-based, Burkholderia cenocepacia
[31] = test system: Galleria mellonella larvae; experiment: Galleria toxicity; conditions: for percent survival of Galleria larvae: 10 mg/kg
B. cenocepacia K56-2 [32] = experiment: In vivo antibiotic activity in infected C. elegans; conditions: C. elegans infected with B. cenocepacia K56-2, data not shown
C. elegans DH26 = conditions: for Percent survival of C. elegans: 24 h

## CC(=O)OC[C@H]1O[C@@H]([S-])[C@H](OC(C)=O)[C@@H](OC(C)=O)[C@@H]1OC(C)=O.CCP(CC)CC.[Au+] [Auranofin]
B. pseudomallei
  MIC in B. pseudomallei: 64 µg/mL
B. dolosa CEP021
  MIC: >128 µg/mL
B. ubonensis LMG 20358
  MIC: >128 µg/mL
Members of the Bcc
  MICs against members of the Bcc: ≥ 128 µg/mL
Gram-negative bacteria
  MICs against Gram-negative bacteria: > 16 mg/L
B. mallei
  MICs against B. mallei: 0.25 to 1 µg/mL
B. cenocepacia K56-2 [1]
  MIC: >128 µg/mL
B. contaminans FFH-4004
  MIC: >128 µg/mL
B. pseudomallei MSHR465a
  MIC: 64 µg/mL
[2]
  MIC: 64 µg/mL
B. pseudomallei 1710b
  MIC: 64 µg/mL
B. lata BCC6
  MIC: 128 µg/mL
[3]
  MIC: 0.5 µg/mL
B. cenocepacia 140485
  MIC: 128 µg/mL
[4]
  MIC: 1 µg/mL
B. multivorans ATCC17616
  MIC: 128 µg/mL
[5]
  MIC: 128 µg/mL
B. contaminans MF16
  MIC: 128 µg/mL
[6]
  MIC: 0.25 µg/mL

## C[PH](C)(C)[Au][S]CCO [MS-40, 2-mercaptoethanolatotrimethylphosphine gold(I)]
[7]
  MIC: 0.25 µg/mL
B. pseudomallei MSHR305
  MIC: 2 µg/mL
B. cenocepacia K56-2 [8]
  in vivo antibiotic activity: did not observe in vivo antibiotic activity
[9]
  MIC: 2 µg/mL
B. dolosa CEP021
  MIC: 16 µg/mL
B. ubonensis LMG 20358
  MIC: 16 µg/mL
[10]
  MBC: 2 µg/mL
[11]
  MIC: 2 µg/mL
[12]
  MBC: 1 µg/mL
[13]
  MBC: 4 µg/mL
B. cenocepacia K56-2 [1]
  MIC: 4 µg/mL
B. contaminans FFH-4004
  MIC: 8 µg/mL
B. pseudomallei MSHR465a
  MIC: 4 µg/mL
[14]
  MBC: 2 µg/mL
[2]
  MIC: 4 µg/mL
Human A549 cells
  toxicity in human A549 cells compared with auranofin: lower toxicity
B. pseudomallei 1710b
  MIC: 4 µg/mL
[15]
  MBC: 4 µg/mL
Escherichia coli 120955 [16]
  MIC: 4 µg/mL
[17]
  MIC: 2 µg/mL
[18]
  MBC: 2 µg/mL
Escherichia coli 120955 [19]
  MBC: 32 µg/mL
[20]
  MIC: 8 µg/mL
[21]
  MIC: 1 µg/mL
B. lata BCC6
  MIC: 8 µg/mL
[22]
  MIC: 2 µg/mL
[3]
  MIC: 0.12 µg/mL
B. cenocepacia 140485
  MIC: 8 µg/mL
[4]
  MIC: 0.25 µg/mL
B. multivorans ATCC17616
  MIC: 8 µg/mL
[23]
  further reduction of ciprofloxacin-generated persister population: 1–2 log10 CFU/mL
  killing of ciprofloxacin-generated persister cells: killed to a concentration below/close to the limit of detection
[24]
  MBC: 4 µg/mL
[5]
  MIC: 4 µg/mL
[25]
  MBC: 8 * μg/mL
[26]
  MIC: 0.25 µg/mL
B. contaminans MF16
  MIC: 8 µg/mL
[27]
  killing of stationary (non-replicating) phase cells: bactericidal
[27]; 4× MIC
  killing of exponential (replicating) phase cells: bactericidal
[28]
  MBC: 8 µg/mL
[6]
  MIC: 0.12 µg/mL
B. cenocepacia K56-2 [29]; 5× MIC
  persister frequency (percent survival): No persisters
B. cenocepacia K56-2 [29]; 10× MIC
  persister frequency (percent survival): No persisters
B. cenocepacia K56-2 [30]
  MIC in the presence of 50% human serum: 128 µg/mL
[31]; 1.0 mg/kg, 24 h
  Galleria Survival: 100%
[31]; 1.0 mg/kg, 48 h
  Galleria Survival: 96.7%
[31]; 1.0 mg/kg, 72 h
  Galleria Survival: 96.7%
[31]; 2.0 mg/kg, 24 h
  Galleria Survival: 90.0%
[31]; 2.0 mg/kg, 48 h
  Galleria Survival: 80.0%
[31]; 2.0 mg/kg, 72 h
  Galleria Survival: 80.0%
[31]; 5.0 mg/kg, 24 h
  Galleria Survival: 96.7%
[31]; 5.0 mg/kg, 48 h
  Galleria Survival: 93.3%
[31]; 5.0 mg/kg, 72 h
  Galleria Survival: 90.0%
[31]
  percent survival of Galleria larvae: ≥ 80%
[31]; 10.0 mg/kg, 24 h
  Galleria Survival: 90.0%
[31]; 10.0 mg/kg, 48 h
  Galleria Survival: 83.3%
[31]; 10.0 mg/kg, 72 h
  Galleria Survival: 80.0%
B. cenocepacia K56-2 [32]
  in vivo antibiotic activity: did not observe in vivo antibiotic activity

## CC(O)C[S][Au-][P+](C)(C)C (stereo not shown) [MS-40S]
[7]
  MIC: 0.25 µg/mL
B. cenocepacia K56-2 [8]
  in vivo antibiotic activity: did not observe in vivo antibiotic activity
[9]
  MIC: 4 µg/mL
B. dolosa CEP021
  MIC: 32 µg/mL
B. ubonensis LMG 20358
  MIC: 16 µg/mL
[10]
  MBC: 4 µg/mL
[11]
  MIC: 2 µg/mL
[12]
  MBC: 1 µg/mL
[13]
  MBC: 8 µg/mL
B. cenocepacia K56-2 [1]
  MIC: 8 µg/mL
B. contaminans FFH-4004
  MIC: 16 µg/mL
B. pseudomallei MSHR465a
  MIC: 4 µg/mL
[14]
  MBC: 8 µg/mL
[2]
  MIC: 2 µg/mL
B. pseudomallei 1710b
  MIC: 4 µg/mL
[15]
  MBC: 8 µg/mL
Escherichia coli 120955 [16]
  MIC: 4 µg/mL
[17]
  MIC: 2 µg/mL
[18]
  MBC: 2 µg/mL
Escherichia coli 120955 [19]
  MBC: 64 µg/mL
C. elegans DH26; 4 μg/mL
  Percent survival of C. elegans: 100%
C. elegans DH26; 8 μg/mL
  Percent survival of C. elegans: 100%
C. elegans DH26; 16 μg/mL
  Percent survival of C. elegans: 100%
C. elegans DH26; 32 μg/mL
  Percent survival of C. elegans: 100%
C. elegans DH26; 64 μg/mL
  Percent survival of C. elegans: 100%
C. elegans DH26; 128 μg/mL
  Percent survival of C. elegans: 97.6%
C. elegans DH26; 256 μg/mL
  Percent survival of C. elegans: 85.7%
C. elegans DH26; highest concentration with 100 percent survival divided by the compound's MIC
  Survival100/MIC Ratio: 8
[20]
  MIC: 16 µg/mL
[21]
  MIC: 2 µg/mL
B. lata BCC6
  MIC: 8 µg/mL
[22]
  MIC: 4 µg/mL
[3]
  MIC: 0.12 µg/mL
B. cenocepacia 140485
  MIC: 16 µg/mL
[4]
  MIC: 0.25 µg/mL
B. multivorans ATCC17616
  MIC: 16 µg/mL
[23]
  further reduction of ciprofloxacin-generated persister population: 1–2 log10 CFU/mL
  killing of ciprofloxacin-generated persister cells: killed to a concentration below/close to the limit of detection
[24]
  MBC: 8 µg/mL
[5]
  MIC: 16 µg/mL
[25]
  MBC: >32 * μg/mL
[26]
  MIC: 0.5 µg/mL
B. contaminans MF16
  MIC: 8 µg/mL
[27]; 4× MIC, exponential phase
  reduction of the culture in time kill: approximately three
[27]
  killing of stationary (non-replicating) phase cells: bactericidal
[27]; 4× MIC
  killing of exponential (replicating) phase cells: bactericidal
[28]
  MBC: 32 µg/mL
[6]
  MIC: 0.12 µg/mL
B. cenocepacia K56-2 [29]; 5× MIC
  persister frequency (percent survival): very low persister frequency
B. cenocepacia K56-2 [29]; 10× MIC
  persister frequency (percent survival): no persisters
B. cenocepacia K56-2 [30]
  MIC in the presence of 50% human serum: 128 µg/mL
[31]; 1.0 mg/kg, 24 h
  Galleria Survival: 96.7%
[31]; 1.0 mg/kg, 48 h
  Galleria Survival: 86.7%
[31]; 1.0 mg/kg, 72 h
  Galleria Survival: 86.7%
[31]; 2.0 mg/kg, 24 h
  Galleria Survival: 83.3%
[31]; 2.0 mg/kg, 48 h
  Galleria Survival: 83.3%
[31]; 2.0 mg/kg, 72 h
  Galleria Survival: 83.3%
[31]; 5.0 mg/kg, 24 h
  Galleria Survival: 93.3%
[31]; 5.0 mg/kg, 48 h
  Galleria Survival: 86.7%
[31]; 5.0 mg/kg, 72 h
  Galleria Survival: 86.7%
[31]
  percent survival of Galleria larvae: ≥ 80%
[31]; 10.0 mg/kg, 24 h
  Galleria Survival: 90.0%
[31]; 10.0 mg/kg, 48 h
  Galleria Survival: 76.7%
[31]; 10.0 mg/kg, 72 h
  Galleria Survival: 76.7%
B. cenocepacia K56-2 [32]
  in vivo antibiotic activity: did not observe in vivo antibiotic activity
